Assay results reported in patent US12577247B2 (BUGWORKS RESEARCH, INC., priority 2021, dated 2026).

Tests used:
[1] = molecular target: T1, A2A receptor (Homo sapiens, UniProt P29274); assay: A2aR antagonism IC50, cAMP TR-FRET in HEK-293 cells, high concentration of adenosine (30 μM); assay type: cell-based; conditions: HEK-293 cells expressing A2A receptor; agonist adenosine 30 μM; 2% HSA; inhibition of cAMP; read-out: A2AR IC50 (nM) (@30 μM Adenosine);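 further: compounds added 10 min before adenosine, then 30 min stimulation at room temperature in buffer with 100 µM rolipram and 30 µM EHNA, signal read 1 h after detection reagents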
T1 construct: host or cells: HEK-293

[2] = molecular target: T2, A2B receptor (Homo sapiens, UniProt P29275); assay: A2bR antagonism IC50, cAMP TR-FRET in HEK-293 cells, high concentration of adenosine (30 μM); conditions: A2BR IC50 (nM) (@30 μM Adenosine), HEK-293 cells expressing A2B receptor; agonist adenosine 30 μM; 2% HSA; inhibition of cAMP;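 further: compounds preincubated 10 min with cells, then adenosine stimulation 30 min at room temperature in buffer with Rolipram 100 µM and EHNA 30 µM, TR-FRET read after 1 h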
T2 sequence (P29275 1-332): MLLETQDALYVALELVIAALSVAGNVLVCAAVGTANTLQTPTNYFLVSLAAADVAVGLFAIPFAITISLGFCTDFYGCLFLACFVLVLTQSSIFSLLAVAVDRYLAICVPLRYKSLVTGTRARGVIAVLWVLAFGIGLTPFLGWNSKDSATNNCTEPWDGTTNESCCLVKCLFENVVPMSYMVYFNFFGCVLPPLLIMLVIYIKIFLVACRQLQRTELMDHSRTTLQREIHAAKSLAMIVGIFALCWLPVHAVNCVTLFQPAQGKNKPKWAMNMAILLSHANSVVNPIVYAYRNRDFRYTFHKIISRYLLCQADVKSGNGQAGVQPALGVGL

T1 sequence (P29274 whole entry): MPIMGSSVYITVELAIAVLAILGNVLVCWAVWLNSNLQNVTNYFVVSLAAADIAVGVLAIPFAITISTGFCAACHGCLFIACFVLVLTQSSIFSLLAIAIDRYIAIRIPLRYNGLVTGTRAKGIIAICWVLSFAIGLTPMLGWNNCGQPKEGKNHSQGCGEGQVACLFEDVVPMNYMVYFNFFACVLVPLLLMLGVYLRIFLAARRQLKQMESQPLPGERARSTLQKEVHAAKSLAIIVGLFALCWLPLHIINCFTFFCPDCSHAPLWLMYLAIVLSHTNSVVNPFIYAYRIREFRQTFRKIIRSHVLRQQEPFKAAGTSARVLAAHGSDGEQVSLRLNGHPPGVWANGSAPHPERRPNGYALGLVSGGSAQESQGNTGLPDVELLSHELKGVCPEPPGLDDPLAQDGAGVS

Row | IC50 [1] [nM] | IC50 [2] [nM] | SMILES
1 | 66 | 2370 | Cc1nn2c(N)c(C#N)c(NCCc3cc(C)n(C4(CO)CC4)n3)nc2c1Br [Example 89, 7-amino-3-bromo-5-((2-(1-(1-(hydroxymethyl)cyclopropyl)-5-methyl-1H-pyrazol-3-yl)ethyl)amino)-2-methylpyrazolo[1,5-a]pyrimidine-6-carbonitrile]
2 | 767 | > 15000 | Cc1nn2c(N)c(C#N)c(NCCc3cccn(CCN)c3=O)nc2c1Cl [Example 125, 7-amino-5-((2-(1-(2-aminoethyl)-2-oxo-1,2-dihydropyridin-3-yl)ethyl)amino)-3-chloro-2-methylpyrazolo[1,5-a] pyrimidine-6-carbonitrile]
3 | 82 | 12200 | CCc1c(C)nn2c(N)c(C#N)c(NCCc3ccn(C4(CNCC[S+](C)[O-])CC4)n3)nc12 (single isomer, unassigned; (+)) [Example 163b, (+)-7-amino-3-ethyl-2-methyl-5-((2-(1-(1-(((2-(methylsulfinyl)ethyl)amino)methyl)cyclopropyl)-1H-pyrazol-3-yl)ethyl)amino) pyrazolo[1,5-a]pyrimidine-6-carbonitrile]
4 | 280 | 5880 | Cc1nn2c(N)c(C#N)c(NCCc3ccn(C4CCC4CO)n3)nc2c1Br (stereo not shown) [Example 130, 7-amino-3-bromo-5-((2-(1-(2-(hydroxymethyl)cyclobutyl)-1H-pyrazol-3-yl)ethyl)amino)-2-methylpyrazolo[1,5-a]pyrimidine-6-carbonitrile]
5 | 405 | 1580 | CCc1c(C)nn2c(N)c(C#N)c(NCCc3ccn(C4CC(CO)C4)n3)nc12 (stereo not shown) [Example 123, 7-amino-3-ethyl-5-((2-(1-(3-(hydroxymethyl)cyclobutyl)-1H-pyrazol-3-yl)ethyl)amino)-2-methylpyrazolo[1,5-a]pyrimidine-6-carbonitrile]
6 | 165 | 482 | CCc1c(C)nn2c(N)c(C#N)c(NCCc3cccc(CCO)n3)nc12 [Example 139, 7-amino-3-ethyl-5-((2-(6-(2-hydroxyethyl)pyridine-2-yl)ethyl)amino)-2-methylpyrazolo[1,5-a]pyrimidine-6-carbonitrile]
7 | 90 | 650 | CCc1c(C)nn2c(N)c(C#N)c(NCCc3cc(C)n(C4COCC4CO)n3)nc12 (single isomer, unassigned; (+)) [Example 168]
8 | 95 | 4610 | Cc1nn2c(N)c(C#N)c(NCCc3ccn(C4(CCN)CC4)n3)nc2c1Cl [Example 151, 7-amino-5-((2-(1-(1-(2-aminoethyl)cyclopropyl)-1H-pyrazol-3-yl)ethyl)amino)-3-chloro-2-methylpyrazolo[1,5-a]pyrimidine-6-carbonitrile]
9 | 820 | > 15000 | Cc1nn2c(N)c(C#N)c(NCCc3ccn(C4(CO)CC4)n3)nc2c1CC1CCC1 [Example 137, 7-amino-3-(cyclobutylmethyl)-5-((2-(1-(1-(hydroxymethyl)cyclopropyl)-1H-pyrazol-3-yl)ethyl)amino)-2-methylpyrazolo[1,5-a]pyrimidine-6-carbonitrile]
10 | 8260 | > 15000 | CCCc1c(C)nn2c(N)c(C#N)c(NCCc3cccc(C)n3)nc12 [Example 164, 7-amino-2-methyl-5-((2-(6-methylpyridin-2-yl)ethyl)amino)-3-propylpyrazolo[1,5-a]pyrimidine-6-carbonitrile]
11 | 1230 | 2730 | CCc1c(C)nn2c(N)c(C#N)c(NCCc3ccn(CCC[S+](C)[O-])n3)nc12 (single isomer, unassigned; (+)) [Example 162b, (+)-7-amino-3-ethyl-2-methyl-5-((2-(1-(3-(methylsulfinyl)propyl)-1H-pyrazol-3-yl)ethyl)amino)pyrazolo[1,5-a]pyrimidine-6-carbonitrile]
12 | 100 | 2590 | Cc1nn2c(N)c(C#N)c(NCCc3ccn(C4CCC4CO)n3)nc2c1C (racemic) [Example 103, (+−)-7-amino-5-((2-(1-(2-(hydroxymethyl)cyclobutyl)-1H-pyrazol-3-yl)ethyl)amino)-2,3-dimethylpyrazolo[1,5-a] pyrimidine-6-carbonitrile]
13 | 195 | 1190 | CCc1c(C)nn2c(N)c(C#N)c(NCCc3cccn(CCCSC)c3=O)nc12 [Example 153, 7-amino-3-ethyl-2-methyl-5-((2-(1-(3-(methylthio)propyl)-2-oxo-1,2-dihydropyridin-3-yl)ethyl)amino)pyrazolo[1,5-a]pyrimidine-6-carbonitrile]
14 | 1050 | 1540 | CCc1c(C)nn2c(N)c(C#N)c(NCCc3cccn(CCC[S+](C)[O-])c3=O)nc12 (single isomer, unassigned; (-)) [Example 154a, (−)-7-amino-3-ethyl-2-methyl-5-((2-(1-(3-(methylsulfinyl)propyl)-2-oxo-1,2-dihydropyridin-3-yl)ethyl)amino) pyrazolo[1,5-a]pyrimidine-6-carbonitrile]
15 | 805 | 3350 | CCCc1c(C)nn2c(N)c(C#N)c(NCCc3ccn(C4(CO)CC4)n3)nc12 [Example 158, 7-amino-5-((2-(1-(1-(hydroxymethyl)cyclopropyl)-1H-pyrazol-3-yl)ethyl)amino)-2-methyl-3-propylpyrazolo[1,5-a]pyrimidine-6-carbonitrile]
16 | 1890 | 3550 | CCc1c(C)nn2c(N)c(C#N)c(NCCc3cccn(CCN)c3=O)nc12 [Example 126, 7-amino-5-((2-(1-(2-aminoethyl)-2-oxo-1,2-dihydropyridin-3-yl)ethyl)amino)-3-ethyl-2-methylpyrazolo[1,5-a] pyrimidine-6-carbonitrile]
17 | 79 | 5640 | COCCn1cccc(CCNc2nc3c(Cl)c(C)nn3c(N)c2C#N)c1=O [Example 92, 7-amino-3-chloro-5-((2-(1-(2-methoxyethyl)-2-oxo-1,2-dihydropyridin-3-yl)ethyl)amino)-2-methylpyrazolo[1,5-a]pyrimidine-6-carbonitrile]
18 | 50 | 1590 | CCc1c(C)nn2c(N)c(C#N)c(NCCc3cc(C)n(C4(CO)CC4)n3)nc12 [Example 76, 7-amino-3-ethyl-5-((2-(1-(1-(hydroxymethyl)cyclopropyl)-5-methyl-1H-pyrazol-3-yl)ethyl)amino)-2-methylpyrazolo[1,5-a]pyrimidine-6-carbonitrile]
19 | 1310 | 2220 | CCc1c(C)nn2c(N)c(C#N)c(NCCc3cccc(C(O)C(F)(F)F)n3)nc12 (stereo not shown) [Example 135, 7-amino-3-ethyl-2-methyl-5-((2-(6-(2,2,2-trifluoro-1-hydroxyethyl)pyridine-2-yl)ethyl)amino) pyrazolo[1,5-a]pyrimidine-6 carbonitrile]
20 | 161 | 9380 | Cc1nn2c(N)c(C#N)c(NCCc3ccn(C4(CN)CC4)n3)nc2c1Cl [Example 68, 7-amino-5-((2-(1-(1-(aminomethyl)cyclopropyl)-1H-pyrazol-3-yl)ethyl)amino)-3-chloro-2-methylpyrazolo[1,5-a]pyrimidine-6-carbonitrile]
21 | 109 | 2650 | Cc1nn2c(N)c(C#N)c(NCCc3ccn(CC4CC(O)C4)n3)nc2c1Cl (single isomer, unassigned; (+)) [Example 83, (+)-7-amino-3-chloro-5-((2-(1-((3-hydroxycyclobutyl)methyl)-1H-pyrazol-3-yl)ethyl)amino)-2-methylpyrazolo[1,5-a]pyrimidine-6-carbonitrile]
22 | 141 | 1660 | CCc1c(C)nn2c(N)c(C#N)c(NCCc3cccn(CCSC)c3=O)nc12 [Example 142, 7-amino-3-ethyl-2-methyl-5-((2-(1-(2-(methylthio)ethyl)-2-oxo-1,2-dihydropyridin-3-yl)ethyl)amino)pyrazolo[1,5-a]pyrimidine-6-carbonitrile]
23 | 43 | 7150 | Cc1nn2c(N)c(C#N)c(NCCc3cc(C)n(C4(CO)CC4)n3)nc2c1Cl [Example 75, 7-amino-3-chloro-5-((2-(1-(1-(hydroxymethyl)cyclopropyl)-5-methyl-1H-pyrazol-3-yl)ethyl)amino)-2-methylpyrazolo[1,5-a]pyrimidine-6-carbonitrile]
24 | 667 | 1340 | CCc1c(C)nn2c(N)c(C#N)c(NCCc3cccn(CC[S+](C)[O-])c3=O)nc12 (racemic) [Example 143, Racemic (+−)7-amino-3-ethyl-2-methyl-5-((2-(1-(2-(methylsulfinyl)ethyl)-2-oxo-1,2-dihydropyridin-3-yl)ethyl)amino) pyrazolo[1,5-a]pyrimidine-6-carbonitrile]
25 | 125 | > 15000 | CCn1cccc(CCNc2nc3c(Cl)c(C)nn3c(N)c2C#N)c1=O [Example 70, 7-amino-3-chloro-5-((2-(1-ethyl-2-oxo-1,2-dihydropyridin-3-yl)ethyl)amino)-2-methylpyrazolo[1,5-a]pyrimidine-6-carbonitrile]
26 | 260 | 3410 | Cc1cccc(CCNc2nc3c(Cl)c(C)nn3c(N)c2C#N)n1 [Example 119, 7-amino-3-chloro-2-methyl-5-((2-(6-methylpyridin-2-yl)ethyl)amino) pyrazolo[1,5-a]pyrimidine-6-carbonitrile]
